These results are taken from US20260191887A1, “METHODS OF TREATING INFLAMMATION” (THERAPEUTIKOS, INC., priority 2022, published 2026).

Data set [1] deals with mouse macrophage cell line RAW264.7 cells. Briefly: WST-1 cytotoxicity assay in RAW264.7 cells. The format is cell-based. The conditions noted are these: concentrations up to 5 mM, 24 h, n=8. How it is done: Mouse RAW264.7 macrophage cell line (ATCC; Manassas, VA, USA) was maintained in DMEM culture medium containing 10% FBS and 1% antibiotic mix. For cell treatment, the test drugs at different doses were added to the culture 0.5 h prior to addition of 100 ng/mL LPS (Sigma-Aldrich Co., St Louis, MO, USA) and then cells were co-treated with LPS for 24 hours. Macrophages in the control group and the treatment groups was seeded on a 96-well plate for 24 hrs and the cell number was counted using the WST-1 kit (Fisher Scientific). After removal of the supernatant, 150 μL of the fresh medium was added into each well. Then 15 μL of the Cell Proliferation Reagent WST-1 was added and incubated with cells for 3 hrs in dark with a humidified atmosphere of 5% carbon dioxide at 37° C. Each sample was determined at 450 nm on a microplate reader. No drugs were added in the non-treatment group (NT). There were eight repeats in each group (n=8). The experiment was duplicated.

Data set [2] has as its system TNFα. Briefly: TNFα ELISA in LPS-activated primary mouse peritoneal macrophages. The format is cell-based. The settings on record: LPS 100 ng/mL; NDX1 and NDX2 0.01, 0.1, 1 mM; NAG 0.1 and 1 mM; n=8. The method, then: • 1. Non treatment (NT) • 2. LPS 100 ng/mL • 3. LPS 100 ng/mL+NDX1 dose1* • 4. LPS 100 ng/mL+NDX1 dose2* • 5. LPS 100 ng/mL+NDX1 dose3* • 6. LPS 100 ng/mL+NDX2 dose1 • 7. LPS 100 ng/mL+NDX2 dose2 • 8. LPS 100 ng/mL+NDX2 dose3 • 9. LPS 100 ng/mL+NAG dose2 • 10. LPS 100 ng/mL+NAG dose3 (*dose 1, 2, 3 were selected as low, middle and high dose with no cytotoxicity from the cytotoxic assay)
The peritoneal macrophages were isolated from peritoneal cavity, and cultured in Dulbecco's modified Eagle's medium (DMEM, Gibco BRL, Gaithersburg, MD) supplemented with 10% fetal bovine serum (FBS) (Hyclone Laboratories, Logan, VT) and 100 IU/mL penicillin G and 100 µg/mL streptomycin, in a humidified atmosphere of 5% carbon dioxide at 37° C. Cells will grow on a 96-well plate and co-treated with 100 ng/ml LPS (Sigma-Aldrich) 0.5 hours after addition of BNAGs and NAG. Twenty-four hours later, the cell number was counted by using the WST-1 kit (Fisher Scientific). After removal of the supernatant, […] new medium was added into each cell. […] Each sample was determined at 450 nm on a microplate reader.
The amounts of IL-6 and TNFα were measured by a commercial ELISA kit (Sigma-Aldrich), following the instructions provided by the manufacturer. […] The resultant solutions were read at 450 nm on a microplate reader.
(ELISA stands for enzyme-linked immunosorbent assay.)

For data set [3], the system named is IL1β. As to the kind of experiment: RT-PCR of IL1β mRNA in LPS-activated RAW264.7 macrophages. The data set is classed as cell-based, mouse. The settings on record: LPS 100 ng/mL; NDX1 0.1 mM and 0.5 mM, NAG 0.5 mM, NDX2 0.5 mM; n=4. The method, then:
(§1) Mouse RAW264.7 macrophage cell line (ATCC; Manassas, VA, USA) was maintained in DMEM culture medium containing 10% FBS and 1% antibiotic mix. For cell treatment, the test drugs at different doses were added to the culture 0.5 h prior to addition of 100 ng/mL LPS (Sigma-Aldrich Co., St Louis, MO, USA) and then cells were co-treated with LPS for 24 hours.
Total RNA was purified using an RNeasy kit (QIAGEN Sciences, Valencia, CA) according to the protocol provided by the manufacturer, and was stored at −80° C. Synthesis of cDNA from total RNA and the quantitative PCR were carried out by using the iScript™ cDNA synthesis kit and the iQ™ SYBR Green Supermix kit (Bio-Rad Laboratories, Hercules, CA), respectively. The target genes included iNOS, IL-6 and IL-1β. Gene of 18s ribosomal RNA was used as an internal control. The threshold cycle (CT) value was calculated from amplification plots. Data was analyzed using the 2-ΔΔCT method with 18s rRNA serving as the reference. Gene expression was normalized to the control group in each experiment and represented as fold of change. […]

Data set [4] concerns IL-6. As to the kind of experiment: IL-6 ELISA in LPS-activated RAW264.7 macrophages. The settings on record: LPS 100 ng/mL, concentrations up to 5 mM, n=8. The data set is classed as cell-based, mouse. How it is done: as §1
The amounts of IL-6 in culture medium from different treatments were measured by a commercial ELISA kit (Sigma-Aldrich), following the instructions provided by the manufacturer. Briefly, cells were seeded on a 96-well plate and various treatments were performed. The culture medium were collected and mixed with different assay reagents step by step. The resultant solutions were read at 450 nm on a microplate reader. There were eight repeats in each group (n=8). *P<0.05 vs LPS group. The experiment was duplicated.

On to `CC(=O)N[C@H]1C(O)O[C@H](CO)[C@@H](O)[C@@H]1O` (stereo partly shown) [NAG, N-acetyl glucosamine], for which the “toxicity / cell growth (WST-1)” value in data set [1] was “less toxicity than NDX1”. In addition, the “reduction of TNFa production (ELISA)” value in data set [2] is “could significantly reduce IL-6 and TNFa production”. In addition, the “inhibition of IL1β mRNA expression (RT-PCR)” value in data set [3] is “could inhibit IL1β”. Further, the “reduction of IL-6 production (ELISA)” value in data set [4] was “could significantly reduce IL-6 production”.
